# Activity calls are given as the source filed them. No cut-off for these calls is given here.
# Tests used:
# [1] = test system: Human immunodeficiency virus 1; assay: Potentiation of 5-Aza-dC-induced antiviral activity against VSV-G pseudotyped HIV-1 NL4-3 infected in human U373-MAGI cells assessed as reduction in U5-gag level at 50 uM after 2 to 72 hrs by qPCR method; format: functional, organism-based
# [2] = test system: Human immunodeficiency virus 1; assay: Antiviral activity against VSV-G pseudotyped HIV-1 NL4-3 infected in human U373-MAGI cells assessed as reduction in gag level at 50 uM measured at 12 to 72 hrs post infection by qPCR method; format: functional, organism-based
# U373-MAGI [3] = assay: Reduction in dCTP level in human U373-MAGI cells at 200 uM preincubated for 2 hrs followed by 5-aza-dC addition measured after 4 hrs by LC-MS/MS analysis relative to 5-aza-dC; format: functional, cell-based
# U373-MAGI [4] = assay: Effect on 5-aza-dCTP level in human U373-MAGI cells at 200 uM preincubated for 2 hrs followed by 5-aza-dC addition measured after 4 hrs by LC-MS/MS analysis; format: functional, cell-based
# [5] = test system: Human immunodeficiency virus 1; assay: Antiviral activity against VSV-G pseudotyped HIV-1 NL4-3 infected in human U373-MAGI cells assessed as Nef mutation at 50 uM incubated for 4 hrs prior to infection measured at 72 hrs post infection by illumina sequencing method (reference value: 22.6%); format: functional
# [6] = test system: Human immunodeficiency virus 1; assay: (§1) Potentiation of 5-Aza-C-induced antiviral activity against VSV-G pseudotyped HIV-1 NL4-3 infected in human U373-MAGI cells assessed as Pol mutation at 50 uM incubated for 4 hrs preinfection followed by 5-Aza-C addition for 2 hrs preinfection and subsequent viral infection measured at 72 hrs post infection by illumina sequencing method (reference value: 18.5%); format: functional
# [7] = test system: Human immunodeficiency virus 1; assay: Antiviral activity against VSV-G pseudotyped HIV-1 NL4-3 infected in human U373-MAGI cells assessed as reduction in U5-gag level at 50 uM measured at 6 hrs post infection by qPCR method; format: functional, organism-based
# [8] = test system: Human immunodeficiency virus 1; assay: as §1, with “5-Aza-dC-induced” for “5-Aza-C-induced”, “increase in frequency of G to C transversion” for “Pol mutation”, “relative to control” for “(reference value: 18.5%)”; format: functional, organism-based
# [9] = test system: Human immunodeficiency virus 1; assay: as §1, with “[…]” for “5-Aza-C-induced”, “Env” for “Pol”, “21.4%)” for “18.5%)”; format: functional
# [10] = test system: Human immunodeficiency virus 1; assay: (§2) Potentiation of 5-Aza-dC-induced antiviral activity against VSV-G pseudotyped HIV-1 NL4-3 infected in human U373-MAGI cells assessed as reduction in viral infectivity at 25 uM preincubated for 2 hrs followed by 5-Aza-dC addition for 2 hrs and subsequent viral infection measured at 72 hrs post infection by flow cytometric analysis; format: functional, organism-based
# [11] = test system: Human immunodeficiency virus 1; assay: Antiviral activity against VSV-G pseudotyped HIV-1 NL4-3 infected in human U373-MAGI cells assessed as increase in frequency of T to G transversion at 50 uM incubated for 4 hrs prior to infection measured at 72 hrs post infection by illumina sequencing method relative to control; format: functional
# U373-MAGI [12] = assay: Increase in 5-aza-dCTP/dCTP ratio in human U373-MAGI cells at 200 uM preincubated for 2 hrs followed by 5-aza-C addition measured after 4 hrs by LC-MS/MS analysis relative to 5-aza-C; format: functional, cell-based
# [13] = test system: Human immunodeficiency virus 1; assay: Antiviral activity against VSV-G pseudotyped HIV-1 NL4-3 infected in human U373-MAGI cells assessed as Vif mutation at 50 uM incubated for 4 hrs prior to infection measured at 72 hrs post infection by illumina sequencing method (reference value: 19.2%); format: functional
# [14] = test system: Human immunodeficiency virus 1; assay: as §1, with “Nef” for “Pol”, “22.6%)” for “18.5%)”; format: functional
# U373-MAGI [15] = assay: Reduction in dCTP level in human U373-MAGI cells at 50 uM after 6 hrs by LC-MS/MS analysis; format: functional, cell-based
# [16] = test system: Human immunodeficiency virus 1; assay: as §1, with “increase in total” for “Pol”, “mutation frequency” for “mutation”, “relative to control” for “(reference value: 18.5%)”; format: functional, organism-based
# [17] = test system: Human immunodeficiency virus 1; assay: as §1, with “5-Aza-dC-induced” for “5-Aza-C-induced”, “increase in frequency of C to G transversion” for “Pol mutation”, “relative to control” for “(reference value: 18.5%)”; format: functional, organism-based
# [18] = test system: Human immunodeficiency virus 1; assay: as §2, with “5-Aza-C-induced” for “5-Aza-dC-induced”, “25 to 100” for “25”, “5-Aza-C” for “5-Aza-dC”; format: functional, organism-based
# [19] = test system: Human immunodeficiency virus 1; assay: Antiviral activity against VSV-G pseudotyped HIV-1 NL4-3 infected in human U373-MAGI cells assessed as reduction in U5-gag level at 50 uM measured at 12 to 72 hrs post infection by qPCR method; format: functional, organism-based
# [20] = test system: Human immunodeficiency virus 1; assay: Antiviral activity against VSV-G pseudotyped HIV-1 NL4-3 infected in human U373-MAGI cells assessed as Env mutation at 50 uM incubated for 4 hrs prior to infection measured at 72 hrs post infection by illumina sequencing method (reference value: 21.4%); format: functional
# U373-MAGI [21] = assay: Reduction in 5-aza-dCTP level in human U373-MAGI cells at 50 uM preincubated for 2 hrs followed by 5-aza-C addition measured after 4 hrs by LC-MS/MS analysis; format: functional, cell-based
# U373-MAGI [22] = assay: Reduction in dCTP level in human U373-MAGI cells at 200 uM preincubated for 2 hrs followed by 5-aza-C addition measured after 4 hrs by LC-MS/MS analysis relative to 5-aza-C; format: functional, cell-based
# [23] = test system: Human immunodeficiency virus 1; assay: as §1, with “Vif” for “Pol”, “19.2%)” for “18.5%)”; format: functional
# [24] = test system: Human immunodeficiency virus 1; assay: Antiviral activity against VSV-G pseudotyped HIV-1 NL4-3 infected in human U373-MAGI cells assessed as increase in frequency of […] transversion at 50 uM incubated for 4 hrs prior to infection measured at 72 hrs post infection by illumina sequencing method relative to control; format: functional
# [25] = test system: Human immunodeficiency virus 1; assay: Antiviral activity against VSV-G pseudotyped HIV-1 NL4-3 infected in human U373-MAGI cells assessed as Gag mutation at 50 uM incubated for 4 hrs prior to infection measured at 72 hrs post infection by illumina sequencing method (reference value: 18.4%); format: functional
# [26] = test system: Human immunodeficiency virus 1; assay: Potentiation of 5-Aza-dC-induced antiviral activity against VSV-G pseudotyped HIV-1 NL4-3 infected in human U373-MAGI cells assessed as reduction in gag level at 50 uM after 2 to 72 hrs by qPCR method; format: functional, organism-based
# [27] = test system: Human immunodeficiency virus 1; assay: as §1, with “Env” for “Pol”, “21.4%)” for “18.5%)”; format: functional
# [28] = test system: Human immunodeficiency virus 1; assay: as §1, with “5-Aza-dC-induced” for “5-Aza-C-induced”, “increase in total” for “Pol”, “mutation frequency” for “mutation”, “relative to control” for “(reference value: 18.5%)”; format: functional, organism-based
# [29] = Reduction in dATP level in human U373-MAGI cells at 50 uM after 6 hrs by LC-MS/MS analysis; format: functional; design: scale not given: the % may be the effect or the level left
smiles,measurement,setting,value
Oc1ccc(/C=C/c2cc(O)cc(O)c2)cc1 [RESVERATROL],Activity,[1],Active
same,Activity,[2],inactive
same,Activity,U373-MAGI [3],Active
same,Activity,U373-MAGI [4],inactive
same,Activity,[5],18.5%
same,Activity,[6],21.9%
same,Activity,[7],Active
same,Activity,[8],inactive
same,Activity,[9],20.1%
same,Activity,[10],Active
same,fold change (FC),[11],3.2
same,Activity,U373-MAGI [12],inactive
same,Activity,[13],23.4%
same,Activity,[14],17.1%
same,Activity,U373-MAGI [15],inactive
same,Activity,[16],inactive
same,Activity,[17],inactive
same,Activity,[18],Active
same,Activity,[19],inactive
same,Activity,[20],22.5%
same,Activity,U373-MAGI [21],inactive
same,Activity,U373-MAGI [22],Active
same,Activity,[23],22.6%
same,fold change (FC),[24],2
same,Activity,[25],16.6%
same,Activity,[26],Active
same,Activity,[27],22.8%
same,Activity,[28],inactive
same,Activity,[29],30%

# From ChEMBL document CHEMBL3797079, “Synergistic reduction of HIV-1 infectivity by 5-azacytidine and inhibitors of ribonucleotide reductase” (Bioorg Med Chem, 2016)
